From patent US12691101B2, “Compound and method for preventing or treating of respiratory diseases comprising the same as an active ingredient” (YONSEI UNIVERSITY, UNIVERSITY - INDUSTRY FOUNDATION (UIF), priority 2019, dated 2026)
Read-outs that look alike come from different tables or passages of the source.

Molecular target: T1, human wild-type (WT)-pendrin (Homo sapiens, UniProt O43511)
T1 construct: expressed in transfected cells
T1 sequence (O43511 1-780): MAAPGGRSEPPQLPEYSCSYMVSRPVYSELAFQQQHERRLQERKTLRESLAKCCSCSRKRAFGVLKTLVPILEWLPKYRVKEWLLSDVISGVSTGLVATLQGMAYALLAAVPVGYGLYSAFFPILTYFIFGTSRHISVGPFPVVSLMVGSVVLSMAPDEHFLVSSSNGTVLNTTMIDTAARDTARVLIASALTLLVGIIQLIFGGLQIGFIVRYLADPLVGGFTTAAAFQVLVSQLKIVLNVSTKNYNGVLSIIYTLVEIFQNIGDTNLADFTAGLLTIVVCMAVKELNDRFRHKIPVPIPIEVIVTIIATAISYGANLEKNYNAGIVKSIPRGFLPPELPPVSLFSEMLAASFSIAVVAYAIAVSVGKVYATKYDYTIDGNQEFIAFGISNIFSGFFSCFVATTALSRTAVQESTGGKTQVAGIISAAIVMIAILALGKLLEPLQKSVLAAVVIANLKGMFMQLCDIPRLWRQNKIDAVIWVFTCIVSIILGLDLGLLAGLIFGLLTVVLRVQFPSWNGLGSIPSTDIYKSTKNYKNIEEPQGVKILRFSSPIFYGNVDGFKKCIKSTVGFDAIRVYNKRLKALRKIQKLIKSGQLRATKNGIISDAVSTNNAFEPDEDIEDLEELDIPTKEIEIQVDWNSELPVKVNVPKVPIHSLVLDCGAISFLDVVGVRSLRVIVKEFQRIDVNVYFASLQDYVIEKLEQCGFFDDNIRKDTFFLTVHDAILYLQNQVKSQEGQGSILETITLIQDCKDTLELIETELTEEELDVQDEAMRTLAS
Assay: Pendrin-mediated Cl^−/I^− exchange activity, YFP fluorescence in CHO-K1 cells
Type: cell-based
Settings: for inhibition at 30 µM: read-out: Pendrin inhibitory activity at 30 μM (%); for IC50: compounds showing pendrin inhibitory activity of 50% or more at 30 μM, read-out: IC50
Procedure: Chinese hamster ovary (CHO)-K1 cells were maintained in a DMEM medium containing 10% fetal bovine serum (FBS), 100 units/ml penicillin and 100 100 μg/ml streptomycin. CHO-K1 cells were stably transfected with pcDNA3.1 encoding halide sensor YFP-H148Q/I152L/F46L and human wild-type (WT)-pendrin. For distribution of primary culture of human nasal cavity epithelium (HNE) cells, passage-2 cells were seeded into transwell-transparent culture inserts with a pore size of 0.45 μm (Costar Co., Cambridge, MA) at a density of 2×10^5 cells/cm^2. The cells were maintained in a 1:1 mixture of Dulbecco's modified Eagle's medium (Lonza, Walkersville, MD) and bronchial epithelial growth medium (Lonza) supplemented with the following growth factors according to the manufacturer's instructions. After immersing the cells for the first 7 days, they were exposed to the apical air interface for the remainder of the culture period. After establishment of the air-liquid interface, the cells were used between 14 and 21 days. At all stages of culture, the cells were maintained at 37° C. under 5% CO2 in an air incubator.
CHO-K1 cells expressing human WT pendrin and YFP-F46L/H148Q/I152L were plated on a 96-well microplate at a density of 2×10^4 cells per well and cultured for 48 hours. Each well of the cell cultured 96-well plate was washed with PBS of 200 μL twice and was filled with HEPES buffer solution of 50 μL, respectively. […] After culturing at 37° C. for 10 minutes, the 96-well plate was positioned on FLUOstar Omega microplate reader (BMG Labtech, Ortenberg, Germany) for fluorescence analysis. By continuously (400 ms per point) recording fluorescence for 1 second (base line), each well was individually analyzed for pendrin-mediated I^− inflow, and then at 1 second, 50 μL of NaI-substituted HEPES buffer solution (NaI replacing NaCl) was added using a liquid injector and the YFP fluorescence was recorded for 5 seconds. The initial iodide inflow rate was determined from the initial slope of fluorescence by nonlinear regression, after injection the iodide (See FIG. 1).
For measurement of Cl^−/I^− exchange activity, YFP fluorescence was measured in pendrin and halide sensor YFP expressing CHO-K1 cells. Each well of the cell cultured 96-well plate was washed with PBS of 200 μL twice, and was filled with HEPES buffer solution (140 mM NaCl, 5 mM KCl, 1 mM MgCl2, 1 mM CaCl2, 10 mM glucose and 10 mM HEPES (pH 7.4)), respectively. […] After culturing at 37° C. for 10 minutes, the 96-well plate was positioned on FLUOstar Omega microplate reader (BMG Labtech, Ortenberg, Germany) for fluorescence analysis.
By continuously (400 ms per point) recording fluorescence for 1 second (base line), each well was individually analyzed for pendrin-mediated I^− inflow, and then at 1 second, 50 μL of NaI-substituted HEPES buffer solution (140 mM NaI, 5 mM KCl, 1 mM MgCl2, 1 mM CaCl2, 10 mM glucose and 10 mM HEPES (pH 7.4)) was added using a liquid injector and the YFP fluorescence was recorded for 5 seconds. The initial iodide inflow rate was determined from the initial slope of fluorescence by nonlinear regression, after injection the iodide.

Row | Structure (SMILES) | inhibition at 30 µM (CHO-K1, 30 μM) [%] | IC50 [µM] | inhibition at 30 µM (CHO-K1) [%]
1 | COC(=O)c1ccc(C2=NC(=Cc3ccco3)C(=O)O2)cc1 [F31, Methyl 4-(4-(furan-2-ylmethylene)-5-oxo-4,5-dihydrooxazol-2-yl)benzoate] | 4.2 |  | 
2 | CCOc1ccc2nc(Sc3ccccc3)c(C=C3N=C(c4ccccc4)OC3=O)cc2c1 [F70, 4-((6-Ethoxy-2-(phenylthio)quinolin-3-yl)methylene)-2-phenyloxazol-5(4H)-one] | 3.1 |  | 
3 | CCCCOc1ccc(C2=NC(=Cc3ccc[nH]3)C(=O)O2)cc1 [F138, 4-((1H-pyrrol-2-yl)methylene)-2-(4-butoxyphenyl)oxazol-5 (4H)-one] | 2.7 |  | 
4 | CC(C)(C)c1ccc(C2=NC(=Cc3ccccc3OC(F)F)C(=O)O2)cc1 [F122, 2-(4-(tert-butyl)phenyl)-4-(2-(difluoromethoxy)benzylidene)oxazol-5(4H)-one] | 3.8 |  | 
5 | O=C1OC(Cc2ccc(-c3ccccc3)cc2)=NC1=Cc1cccs1 [F28, 2-([1,1′-biphenyl]-4-ylmethyl)-4-(thiophen-2-ylmethylene)oxazol-5 (4H)-one] | 2.2 |  | 
6 | O=C1OC(c2ccccc2)=NC1=Cc1ccc(OC(=O)c2ccco2)cc1 [F78, 4-((5-oxo-2-phenyloxazol-4(5H)-ylidene)methyl)phenylfuran-2-carboxylate] | 1.7 |  | 
7 | Cc1ncsc1C=C1N=C(c2ccc(Br)cc2)OC1=O [F22, 2-(4-Bromophenyl)-4-((4-methylthiazol-5-yl)methylene)oxazol-5(4H)-one] | 2.4 |  | 
8 | Cc1ccc(C2=NC(=Cc3cccs3)C(=O)O2)s1 [F111, 2-(5-methylthiophen-2-yl)-4-(thiophen-2-ylmethylene)oxazol-5 (4H)-one] | 30.8 |  | 
9 | COc1ccccc1C1=NC(=Cc2cnn(C(C)(C)C)c2)C(=O)O1 [F136, 4-((1-(tert-butyl)-1H-pyrazol-4-yl)methylene)-2-(2-methoxyphenyl)oxazol-5(4H)-one] | 2.4 |  | 
10 | CC(C)c1ccc(C2=NC(=Cc3cccs3)C(=O)O2)cc1 [F46, 2-(4-Isopropylphenyl)-4-(thiophen-2-ylmethylene)oxazol-5(4H)-one] | 53.8 | 22.7 ± 2.48 | 
11 | Cc1ccc(C=C2N=C(c3ccc(S(=O)(=O)NC(C)(C)C)cc3)OC2=O)o1 [F126, N-(tert-butyl)-4-(4-((5-methylfuran-2-yl)methylene)-5-oxo-4,5-dihydrooxazol-2-yl) benzenesulfonamide] | 2.5 |  | 
12 | O=C(O)C(=Cc1cccs1)NC(=O)c1ccc(OC(F)F)cc1 [G39, 2-(4-(Difluoromethoxy)benzamido)-3-(thiophen-2-yl)acrylate] | 3.2 |  | 
13 | CC(=O)Nc1ccc(C2=NC(=Cc3ccc(N(C)CCCl)cc3)C(=O)O2)cc1 [F86, N-(4-(4-(4-((2-chloroethyl)(methyl)amino)benzylidene)-5-oxo-4,5-dihydrooxazol-2-yl)phenyl)acetamide] |  |  | 3.3
14 | CCC(/C=C1\Sc2ccc(OC)cc2N1CC)=C1N=C(c2ccccc2)OC1=O [F68, 4-((Z)-1-(3-ethyl-5-methoxybenzo[d]thiazol-2(3H)-ylidene)butan-2-ylidene)-2-phenyloxazol-5(4H)-one] | 4.3 |  | 
15 | CCCc1ccc(C(=O)NC(=Cc2cccs2)C(=O)O)cc1 [G30, 2-(4-Propylbenzamido)-3-(thiophen-2-yl)acrylate] | 29.7 |  | 
16 | COc1cccc(C2=NC(=Cc3cccs3)C(=O)O2)c1 [F104, 2-(3-Methoxyphenyl)-4-(thiophen-2-ylmethylene)oxazol-5(4H)-one] | 3.5 |  | 
17 | O=C(O)C(=Cc1cccs1)NC(=O)c1ccc(Br)cc1 [G19, 2-(4-Bromobenzamido)-3-(thiophen-2-yl)acrylate] | 3.9 |  | 
18 | O=C1OC(c2ccc(Br)cc2)=NC1=Cc1ccco1 [F50, 2-(4-Bromophenyl)-4-(furan-2-ylmethylene)oxazol-5 (4H)-one] | 3.7 |  | 
19 | CCCCCc1ccc(C2=NC(=Cc3ccco3)C(=O)O2)cc1 [F141, 4-(Furan-2-ylmethylene)-2-(4-pentylphenyl)oxazol-5(4H)-one] | 1.9 |  | 

Further lines, with some results ahead:

Row | inhibition at 30 µM (CHO-K1, 30 μM) [%] | IC50 [µM] | Structure (SMILES) | inhibition at 30 µM (CHO-K1) [%]
20 | 4.8 |  | Cc1cc(C)cc(C2=NC(=Cc3ccc[nH]3)C(=O)O2)c1 [F149, 4-((1H-pyrrol-2-yl)methylene)-2-(3,5-dimethylphenyl)oxazol-5(4H)-one] | 
21 | 4.4 |  | COC(=O)C(=Cc1ccco1)NC(=O)c1ccc(C(C)(C)C)cc1 [G4, Methyl 2-(4-(tert-butyl)beznamido)-3-(furan-2-yl)acrylate] | 
22 | 2.6 |  | CC(=O)Nc1ccc(S(=O)(=O)Oc2ccccc2C=C2N=C(c3ccc(Cl)cc3)OC2=O)cc1 [F77, 2-((2-(4-Chlorophenyl)-5-oxooxazol-4(5H)-ylidene)methyl)phenyl4-acetamido benzenesulfonate] | 
23 | 2.9 |  | O=C1OC(c2ccccc2)=NC1=C1C=C(c2ccccc2)SC(c2ccccc2)=C1 [F85, 4-(2,6-Diphenyl-4H-thiopyran-4-ylidene)-2-phenyloxazol-5(4H)-one] | 
24 | 3.5 |  | CC(C)(C)c1ccc(C2=NC(=Cc3ccccc3)C(=O)O2)cc1 [F44, 4-Benzylidene-2-(4-(tert-butyl)phenyl)oxazol-5 (4H)-one] | 
25 | 1.7 |  | Cc1ccc(C=C2N=C(c3ccc(C)s3)OC2=O)s1 [F119, 2-(5-methylthiophen-2-yl)-4-((5-methylthiophen-2-yl)methylene)oxazol-5 (4H)-one] | 
26 | 81.7 | 16.7 ± 1.87 | CCCCc1ccc(C(=O)NC(=Cc2ccsc2)C(=O)O)cc1 [G29] | 
27 | 60.9 | 22.6 ± 2.46 | CC(C)(C)c1ccc(C(=O)NC(=Cc2ccco2)C(=O)O)cc1 [G5, 2-(4-(tert-butyl)benzamido)-3-(furan-2-yl)acrylate] | 
28 | 2.8 |  | O=C1OC(c2cccs2)=NC1=Cc1cccs1 [F89, 2-(Thiophen-2-yl)-4-(thiophen-2-ylmethylene)oxazol-5(4H)-one] | 
29 | 2.3 |  | CC(=O)Nc1ccc(C2=NC(=Cc3ccc(N(C)C)s3)C(=O)O2)cc1 [F108, N-(4-(4-((5-(dimethylamino)thiophen-2-yl)methylene)-5-oxo-4,5-dihydrooxazol-2-yl)phenyl) acetamide] | 
30 | 2.3 |  | C=CCOc1cc(N(CC)CC)ccc1C=C1N=C(c2ccc(NC(=O)c3cncc(Br)c3)cc2)OC1=O [F66, N-(4-(4-(2-(Allyloxy)-4-(diethylamino)benzylidene)-5-oxo-4,5-dihydrooxazol-2-yl)phenyl)-5-bromonicotinamide] | 
31 | 2.9 |  | O=C1OC(/C=C/c2ccccc2)=NC1=Cc1cccs1 [F110, 2-((E)-styryl)-4-(thiophen-2-ylmethylene)oxazol-5 (4H)-one] | 
32 | 4.2 |  | O=C1OC(c2ccc(-c3ccccc3)cc2)=NC1=Cc1cccnc1 [F42, 2-([1,1′-biphenyl]-4-yl)-4-(pyridin-3-ylmethylene)oxazol-5(4H)-one] | 
